Results from US20230233514A1, “ANTIVIRAL COMPOUNDS AND METHODS OF USING THE SAME” (priority 2020, published 2023).
Where two headings read alike, the source gives them in different places.

Key:
SARS-CoV-2 [1] = type: cell-based
Vero E6 cells [2] = settings: 48 hours, CellTiterGlo
SARS-CoV-2 [3] = type: cell-based; settings: compound 10 and 31.6 μM, MOI 0.01, 72 hours
Vero E6 cells [4] = test system: Vero E6 cells
[5] = 1 hour pre-treatment, 1 nM-100 μM, MOI 0.05, 48 hours, Vero E6 cells

Compound	effect on Viral Load (viral burden) (SARS-CoV-2 [1]; [5])	effect on Host Cell Number (cell viability) (Vero E6 cells [4])	also measured
O=c1cc(-c2ccc(O)c(-c3c(O)cc(O)c4c(=O)cc(-c5ccc(O)cc5)oc34)c2)oc2cc(O)cc(O)c12 [Amentoflavone]	reduction in Viral Load levels		
COc1ccc(-c2cc(=O)c3c(O)cc(O)cc3o2)cc1-c1c(O)cc(O)c2c(=O)cc(-c3ccc(O)cc3)oc12 [Bilobetin]	reduction in Viral Load levels		
C[C@@H]1CC[C@@]2(OC1)O[C@H]1C[C@H]3[C@@H]4CC=C5C[C@@H](O[C@@H]6O[C@H](CO)[C@@H](O[C@@H]7O[C@@H](C)[C@H](O)[C@@H](O)[C@H]7O)[C@H](O)[C@H]6O[C@@H]6O[C@@H](C)[C@H](O)[C@@H](O)[C@H]6O)CC[C@]5(C)[C@H]4CC[C@]3(C)[C@H]1[C@@H]2C [Dioscin]	reduction in Viral Load levels		concentrations that did not significantly impact Vero E6 cell viability compared to the DMSO treated control (Vero E6 cells [2]): less than or equal to 0.1 μM; toxicity observed at (and above) concentration (Vero E6 cells [2]): ≥ 1 µM
O=c1oc2c(O)c(O)cc3c(=O)oc4c(O)c(O)cc1c4c23 [Ellagic Acid]			Remdesivir concentration at which the compound synergized (SARS-CoV-2 [3]): ≤ 0.625 µM; combined effect with Remdesivir on host cell viability (SARS-CoV-2 [3]): synergized
CN1C[C@@H](C(=O)N[C@]2(C)O[C@@]3(O)[C@@H]4CCCN4C(=O)[C@H](Cc4ccccc4)N3C2=O)C=C2c3cccc4[nH]cc(c34)C[C@H]21 [Ergotamine]	reduction in Viral Load levels		
COc1cc(O)c2c(=O)cc(-c3ccc(OC)c(-c4c(O)cc(O)c5c(=O)cc(-c6ccc(O)cc6)oc45)c3)oc2c1 [Ginkgetin]	reduction in Viral Load levels		
Oc1cc(O)c2c(c1)O[C@H](c1ccc(O)c(O)c1)[C@H](O)[C@H]2c1c(O)cc(O)c2c1O[C@H](c1ccc(O)c(O)c1)[C@H](O)C2 [Procyanidin B2]	did not show an effect	did not show an effect	
CC1OC(OCC2OC(Oc3c(-c4ccc(O)cc4)oc4cc(OC5OC(C)C(O)C(O)C5O)cc(O)c4c3=O)C(O)C(O)C2O)C(O)C(O)C1O (stereo not shown) [Robinin]	did not show an effect	did not show an effect	
C[C@@H]1O[C@@H](OC[C@H]2O[C@@H](Oc3c(-c4ccc(O)c(O)c4)oc4cc(O)cc(O)c4c3=O)[C@H](O)[C@@H](O)[C@@H]2O)[C@H](O)[C@H](O)[C@H]1O [Rutin]		did not show an effect	
O=C(O[C@H]1Cc2c(O)cc(O)cc2O[C@H]1c1cc(O)c(O)c2c(=O)c(O)cc([C@H]3Oc4cc(O)cc(O)c4C[C@H]3O)cc12)c1cc(O)c(O)c(O)c1 [Theaflavin-3-gallate, Theaflavin 3-gallate]	reduction in Viral Load levels		
O=c1c(O)cc([C@H]2Oc3cc(O)cc(O)c3C[C@H]2O)cc2c([C@H]3Oc4cc(O)cc(O)c4C[C@H]3O)cc(O)c(O)c12 [Theaflavin]	did not show an effect	did not show an effect	
O=C(/C=C/c1ccc(O)cc1)OC[C@H]1O[C@@H](Oc2c(-c3ccc(O)cc3)oc3cc(O)cc(O)c3c2=O)[C@H](O)[C@@H](O)[C@@H]1O [Tiliroside]		did not show an effect	concentrations that only mildly impacted Vero E6 cell viability compared to the DMSO treated control (Vero E6 cells [2]): less than or equal to 10 μM; toxicity observed at (and above) concentration (Vero E6 cells [2]): ≥ 100 µM
O=c1oc2cc(O)ccc2c2ccc(O)cc12 [Urolithin A]			Remdesivir concentration at which the compound synergized (SARS-CoV-2 [3]): ≤ 1.25 µM; combined effect with Remdesivir on host cell viability (SARS-CoV-2 [3]): synergized
Hypericin	reduction in Viral Load levels		
Miquelianin/Quercetin 3-glucuronide			effect on Viral Load (viral burden) (SARS-CoV-2 [1]): did not show an effect
Punicalagin	reduction in Viral Load levels		
